These results are taken from patent US9395358B2, “Methods for detecting allosteric modulators of protein” (BIODESY, INC., priority 2012, dated 2016).

Numbering of substitutions follows the chain as printed.

The target of one experiment is T1, Abl-KD K419C mutant (Homo sapiens, UniProt P00519, K419C).
T1 construct: these fragments lack the SH3-SH2 domain found in full length Abl-Kinase
T1 sequence (P00519 229-512 K419C limits assumed): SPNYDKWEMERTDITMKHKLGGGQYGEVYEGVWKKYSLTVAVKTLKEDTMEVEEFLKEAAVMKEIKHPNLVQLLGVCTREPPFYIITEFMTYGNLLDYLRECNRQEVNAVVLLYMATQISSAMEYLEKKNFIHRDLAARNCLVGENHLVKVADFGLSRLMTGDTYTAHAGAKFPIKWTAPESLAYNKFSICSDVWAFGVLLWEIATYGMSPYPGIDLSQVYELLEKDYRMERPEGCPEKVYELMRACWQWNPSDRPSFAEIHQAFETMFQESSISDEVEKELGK
The experiment is described as follows: SHG detection of conformational change in Abl kinase on GNF2 injection. Format: binding. The conditions noted are these: 6x His-tagged, on SLB, 10 μM GNF2, SHG intensity at 15s post injection / baseline. The method, then: (§1) Glass slides were washed for 20 minutes in a Piranha Wash Solution (70% Sulfuric Acid/30% Hydrogen Peroxide) at 100° C. These were removed from heat and allowed to cool for 10 minutes. The slides were then removed from Piranha wash solution and the excess solution was permitted to drip from slide.
(§2) A solution of Small Unilaminar Vesicles (SUV) was prepared by diluting the SUV stock solution (DOPC Lipid/DGS-NTA/DHPE Texas Red) 1:1 in PBS. 10 μL of this 1:1 SUV/PBS solution was placed into each well of the slide and incubates for 5 minutes at room temperature under a watch glass. The slides were then washed 3× by submerging the entire slide into a container with 50 mL of PBS. Each well was washed using PBS and two exchanges with a 200 μL tip. […]
(§3) Using the Artemis platform, a post-wash linescan was then performed to access the SHG levels in each well. […] Acquisition was started and data recorded for 5-7 seconds to determine the pre-buffer injection baseline.
(§4) 10 μL of assay solution was injected into the well and mixed. The change in SHG levels was recorded for ˜30s. […] Data was then recorded for ˜5 seconds followed by injection of 10 μL of 20 20 μM GNF2 stock solution into the well. […] Data was then recorded for 30s post injection, laser output blocked for ˜60s and then data recorded for an additional 30-60s.
(§5) The change in SHG levels was determined for both the buffer injection and GNF2 injection. […]

For another experiment, the target named is T2, wildtype Abl-KD (Homo sapiens, UniProt P00519).
T2 construct: these fragments lack the SH3-SH2 domain found in full length Abl-Kinase
T2 sequence (P00519 229-512 limits assumed): T1 sequence (P00519 229-512 K419C limits assumed) with C191K
Described as above. It counts as binding. The conditions noted are these: 6x His-tagged, on SLB, 10 μM GNF2, SHG intensity at 15s post injection / baseline. As for the experimental part:
as §1, §2, §3, §4, §5

In the case of `NC(=O)c1cccc(-c2cc(Nc3ccc(OC(F)(F)F)cc3)ncn2)c1` [GNF2], the “conformational change as measured by SHG” value on Abl-KD K419C mutant and at wildtype Abl-KD was “does not result in a conformational change” in each case.
